In US9920063B2, “Melampomagnolide B derivatives” (Board of Trustees of the University of Arkansas, priority 2013, dated 2018):
Like-named read-outs stand apart in the source and are kept apart here.

Key:
[1] = test system: OVCAR-5
[2] = test system: UACC-257
[3] = test system: panel of 60 human cancer cell lines; experiment: Screen against a panel of 60 human tumor cell lines (single dose and five dose), panel and sub-panel statements; type: cell-based
[4] = test system: SN12C
[5] = test system: AML 052308 cells
Experimental: For each compound, in vitro cell culture studies were performed in which a range of concentrations (0.25-20 μM) was tested for cytotoxicity against leukemia cell lines, primary leukemia specimens and normal bone marrow controls.

[6] = test system: TK-10
[7] = test system: SNB-75
[8] = test system: KM12
[9] = test system: ACHN
[10] = test system: MDA-MB-435
[11] = test system: NCI-H23

For C=C1C(=O)O[C@H]2[C@H]1CC/C(COC(=O)c1cc3ccccc3[nH]1)=C\CC[C@@]1(C)O[C@@H]21 [BS-1-28], the CC50 [1] was 8.22 µM, the “Percent Growth” value ([1]; OVCAR-5, Log10 Concentration −4.0) was −88% and the “Percent Growth” value ([1]; OVCAR-5, Log10 Concentration −5.0) was −59%. The “Percent Growth” value ([1]; OVCAR-5, Log10 Concentration −6.0) was 57%, the “Percent Growth” value ([1]; OVCAR-5, Log10 Concentration −7.0) was 96% and the “Percent Growth” value ([1]; OVCAR-5, Log10 Concentration −8.0) was 85%. It also gave a GI50 ([1]; OVCAR-5, NCI five dose) of 1.14 µM, a TGI ([1]; OVCAR-5, NCI five dose) of 3.07E−6 and a CC50 [2] of 6.98 µM. For the same compound, the “Percent Growth” value ([2]; UACC-257, Log10 Concentration −4.0) was −78%, the “Percent Growth” value ([2]; UACC-257, Log10 Concentration −5.0) was −75% and the “Percent Growth” value ([2]; UACC-257, Log10 Concentration −6.0) was 53%. For the same compound, the “Percent Growth” value ([2]; UACC-257, Log10 Concentration −7.0) was 93%, the “Percent Growth” value ([2]; UACC-257, Log10 Concentration −8.0) was 98% and the GI50 ([2]; UACC-257, NCI five dose) was 1.61 µM. For the same compound, the TGI ([2]; UACC-257, NCI five dose) was 3.36E−6, the “Growth inhibition, five dose screening” value ([3]; CCRF-CEM, HL-60 (TB), K-562, RPMI-8226, HOP-92, NCI-H522, HCT-116, HCT-15, SW-620, LOX IMVI, M14, MDA-MB-435, 786-0, ACHN, UO-31) was “potent nanomolar growth inhibition” and the “Anticancer activity, five dose screening” value ([3]; melanoma, leukemia, colon, CNS, breast, ovarian, non-small cell lung, renal, and prostate cancers) was “remarkable anticancer activity”. The “Outcome of initial single dose screening” value ([3]; single concentration 10^−5 M, more than 60% growth inhibition in at least eight cell lines of the panel) was “selected for five dose screening”, the CC50 [4] was 90.5 µM and the “Percent Growth” value ([4]; SN12C, Log10 Concentration −4.0) was −59%. The “Percent Growth” value ([4]; SN12C, Log10 Concentration −5.0) was −35%, the “Percent Growth” value ([4]; SN12C, Log10 Concentration −6.0) was 77% and the “Percent Growth” value ([4]; SN12C, Log10 Concentration −7.0) was 71%. For the same compound, the “Percent Growth” value ([4]; SN12C, Log10 Concentration −8.0) was 60%, the GI50 ([4]; SN12C, NCI five dose) was 1.14 µM and the TGI ([4]; SN12C, NCI five dose) was 4.83E−6. The “Fold more cytotoxic than MMB” value [5] was “around 7 fold”, the CC50 [6] was 5.39 µM and the “Percent Growth” value ([6]; TK-10, Log10 Concentration −4.0) was −98%. For the same compound, the “Percent Growth” value ([6]; TK-10, Log10 Concentration −5.0) was −96%, the “Percent Growth” value ([6]; TK-10, Log10 Concentration −6.0) was 74% and the “Percent Growth” value ([6]; TK-10, Log10 Concentration −7.0) was 117%. For the same compound, the “Percent Growth” value ([6]; TK-10, Log10 Concentration −8.0) was 95%, the GI50 ([6]; TK-10, NCI five dose) was 1.39 µM and the TGI ([6]; TK-10, NCI five dose) was 2.73E−6. For the same compound, the CC50 [7] was 4.72 µM, the “Percent Growth” value ([7]; SNB-75, Log10 Concentration −4.0) was −58% and the “Percent Growth” value ([7]; SNB-75, Log10 Concentration −5.0) was −98%. For the same compound, the “Percent Growth” value ([7]; SNB-75, Log10 Concentration −6.0) was 50%, the “Percent Growth” value ([7]; SNB-75, Log10 Concentration −7.0) was 77% and the “Percent Growth” value ([7]; SNB-75, Log10 Concentration −8.0) was 72%. It also gave a GI50 ([7]; SNB-75, NCI five dose) of 1.01 µM, a TGI ([7]; SNB-75, NCI five dose) of 2.19E−6 and a CC50 [8] of 15.6 µM. The “Percent Growth” value ([8]; KM12, Log10 Concentration −4.0) was −82%, the “Percent Growth” value ([8]; KM12, Log10 Concentration −5.0) was −42% and the “Percent Growth” value ([8]; KM12, Log10 Concentration −6.0) was 92%. For the same compound, the “Percent Growth” value ([8]; KM12, Log10 Concentration −7.0) was 96%, the “Percent Growth” value ([8]; KM12, Log10 Concentration −8.0) was 93% and the GI50 ([8]; KM12, NCI five dose) was 2.05 µM. The TGI ([8]; KM12, NCI five dose) was 4.84E−6, the CC50 [9] was 4.22 µM and the “Percent Growth” value ([9]; ACHN, Log10 Concentration −4.0) was −95%. For the same compound, the “Percent Growth” value ([9]; ACHN, Log10 Concentration −5.0) was −91%, the “Percent Growth” value ([9]; ACHN, Log10 Concentration −6.0) was 19% and the “Percent Growth” value ([9]; ACHN, Log10 Concentration −7.0) was 55%. For the same compound, the “Percent Growth” value ([9]; ACHN, Log10 Concentration −8.0) was 76%, the GI50 ([9]; ACHN, NCI five dose) was 0.342 µM and the TGI ([9]; ACHN, NCI five dose) was 1.49E−6. The CC50 [10] was 5.85 µM, the “Percent Growth” value ([10]; MDA-MB-435, Log10 Concentration −4.0) was −96% and the “Percent Growth” value ([10]; MDA-MB-435, Log10 Concentration −5.0) was −76%. For the same compound, the “Percent Growth” value ([10]; MDA-MB-435, Log10 Concentration −6.0) was 44%, the “Percent Growth” value ([10]; MDA-MB-435, Log10 Concentration −7.0) was 98% and the “Percent Growth” value ([10]; MDA-MB-435, Log10 Concentration −8.0) was 97%. For the same compound, the GI50 ([10]; MDA-MB-435, NCI five dose) was 0.763 µM, the TGI ([10]; MDA-MB-435, NCI five dose) was 2.28E−6 and the CC50 [11] was 7.72 µM. The “Percent Growth” value ([11]; NCI-H23, Log10 Concentration −4.0) was −84%.
